Assay results taken from patent US11253519B2, “Composition used to improve symptoms of autism spectrum disorder, and method using same for improving symptoms of autism spectrum disorder” (RENASCIENCE CO., LTD., priority 2016, dated 2022).

What was measured:
Format in all cases: in vivo, human
ASD patient [1] = assay: PARS-TR rating (items 25 to 57, each 0 none, 1 somewhat noticeable, 2 noticeable) in ASD patients before and after intake
Text: PARS (Pervasive Developmental Disorder Autism Society Japan Rating Scale) is a scale composed of 57 items to determine the characteristics in pervasive developmental disorder (PDD) (which may hereinafter also simply be referred to as “PDD”), and to evaluate the support difficulty by interviewing the mothers of the subjects (or other rearer, if it is difficult to obtain information from the mother of a subject); PARS-TR is its revised version. The revised version contains revised wording of the commentary of question items, while maintaining the reliability and validity of the rating scale of the former PARS. On a side note, question items and rating in PARS-TR, PARS-TR items rated for each age group, a score calculation method, and an ASD characteristics test method are detailed in PARS-TR PARS Text Revision (written and edited by Hattatsu Shogai Shien no tameno Hyoka Kenkyu Kai [Study of the Assessment for Supporting Developmental Disorder], a general incorporated association, Spectrum Publishing Company), the disclosure of which is incorporated herein by reference.
FIG. 3 illustrates 57 rating items prescribed in PARS-TR. The rating items vary depending on the age group of targets for diagnosis (children before school age (early childhood), elementary school students (childhood), and junior high-school students or older subjects (early adolescence or adulthood)). Items 1 to 34 are directed to those in early childhood. Items 1 to 34 are intended to assess the peak in early childhood (assessment for most noticeable symptoms in early childhood) of all subjects (children before school age, elementary school students, and junior high-school students or older subjects), and also to assess the current condition of subjects in early childhood. Peak assessment and current condition assessment are performed for young children because, for example, clear autistic symptoms before the age of 4 years may be alleviated after age 5. Young children are not assessed by items 35 to 57. Elementary school students are assessed by items 1 to 34 for early childhood to determine the peak in early childhood, and items 21 to 53 for childhood to determine the current condition. Junior high-school students or older subjects are assessed by the 34 items for early childhood to determine the peak in early childhood, and items 25 to 57 for early adolescence or adulthood to determine the current condition. The specific evaluation method is described in detail in Example 2.
Assessment by PARS-TR is performed by questioning the mother or someone else regarding the severity of symptoms concerning development and behaviors described in rating items in terms of “assessment of the peak in early childhood” and “assessment of the current condition,” and the answer was classified into the following 3 levels and assessed: “0=none (no symptoms asked were observed/no),” “1=somewhat noticeable (symptoms asked were sometimes (somewhat) observed/yes),” and “2=noticeable (symptoms asked were often (quite) observed/yes).” The PARS-TR score is a value determined by simply summing up the assessment score of each item, excluding items that cannot be assessed. Specifically, the cutoff value at which the subject is diagnosed with PDD is score 9 in early childhood, score 13 in childhood, and score 20 in early adolescence or adulthood.
[…] The total scores were compared.
(§1) The symptoms of ASD of the ASD patient were assessed based on the scores of ABC-J, PARS-TR, and RSB-R (Japanese version) by a medical doctor who is a researcher of ASD.

ASD patient [2] = assay: RSB-R (Repetitive Behavior Scale-Revised, Japanese version, 43 items, 6 subscales) in ASD patients before and after intake; settings: 800 mg/day oral + fursultiamine 25 mg/day, 8 weeks after the intake
Text: RSB-R is composed of 6 subscales (I. Stereotypical Behavior, II. Self-Harming Behavior, III. Obsessive-Compulsive Behavior, IV. Ritualized Behavior, V. Insistence on Sameness, and VI. Circumscribed Interests) and 43 items. RSB-R (Japanese version) is a Japanese version of RBS-R, which is a rating scale used worldwide, and whose validity has already been verified (Inada et al., Research in Autism Spectrum Disorders, Vol. 15-16, July 2015, pp. 60-68; Inada et al., Study on reliability and validity of the Japanese version of Repetitive Behaviors Scale—Revised (RBS-R), The Japanese Journal of Developmental Psychology, 2012, Vol. 23, No. 2, pp. 123-133). FIG. 4 illustrates 43 items of RSB-R (including 6 subscales), and the relation between the 43 items of RSB-R and diagnostic criteria A and B of DSM-5.
as §1
The ASD symptoms of the ASD patient were assessed based on the scores in ABC-J and RSB-R (Japanese version) by a medical doctor who is a researcher of ASD.

[3] = Vitamin B1 level in whole blood, serum pyridoxamine and pyridoxal levels and Wernicke's encephalopathy in two test subjects on pyridoxamine medication
[4] = Plasma kinetics of pyridoxamine and metabolites in healthy male adults (LC-MS-MS)
Text: Rather, in blood, the pyridoxal level was higher than the pyridoxamine level. […] The observation results were obtained in a clinical trial performed by collaborators of the applicant of this application, and are shown here simply for reference.

[5] = case 2, 600 mg/day oral + fursultiamine 25 mg/day, 17 Days After Administration, Before Administration: 0
[6] = case 2, 600 mg/day oral + fursultiamine 25 mg/day, 17 Days After Administration, Before Administration: 1
[7] = case 2, 600 mg/day oral + fursultiamine 25 mg/day, 17 Days After Administration, Before Administration: 2
[8] = case 3, 800 mg/day oral + fursultiamine 25 mg/day, 8 weeks after the intake, before intake: rating 1

concentration at 4 weeks ([3]; human, serum, oral, subject ID No. 3, 4 weeks after start of administration): 1540 ng/mL | concentration at 12 weeks ([3]; human, serum, oral, subject ID No. 3, 12 weeks after start, with fursultiamine 75 mg/day): 23.2 ng/mL | concentration at 8 weeks ([3]; human, serum, oral, subject ID No. 6, 8 weeks after start of administration): 421 ng/mL | concentration at 11 weeks ([3]; human, serum, oral, subject ID No. 6, 11 weeks after start, with fursultiamine): 140 ng/mL | time to peak plasma level of pyridoxamine (unchanged substance) ([4]; 300, 600 or 900 mg/dose oral at 0, 6 and 12 hours, trial by collaborators of the applicant): 3 h | plasma pyridoxine (PN) level ([4]; 300, 600 or 900 mg/dose oral, FIG. 14B): did not show any substantial change
Compound: Cc1ncc(CO)c(CN)c1O.Cl.Cl [pyridoxamine dihydrochloride]
PARS-TR item 27: Having negative lifestyle habits, and being incapable of living independently (ASD patient [1]; [5]): 0 | PARS-TR item 29: Showing extreme pickiness in food, with no extremely narrow range of food choice (ASD patient [1]; [5]): 0 | PARS-TR item 31: Being insensitive or sensitive to pain or heat (ASD patient [1]; [5]): 0 | PARS-TR item 32: Being terrified of nothing (ASD patient [1]; [5]): 0 | PARS-TR item 34: Showing self-harming behaviors, such as hitting the head on the wall or biting the hand (ASD patient [1]; [5]): 0 | PARS-TR item 39: Having difficulty understanding what is said from one situation to another (ASD patient [1]; [5]): 0 | PARS-TR item 40: Using big words, but not fully understanding the meaning thereof (ASD patient [1]; [5]): 0 | PARS-TR item 41: Difficulty understanding who is talking to who in a large group conversation (ASD patient [1]; [5]): 0 | PARS-TR item 42: Being incapable of explaining how and why (ASD patient [1]; [5]): 0 | PARS-TR item 47: Enacting a familiar scene from a TV show alone (ASD patient [1]; [5]): 0 | PARS-TR item 48: Persistently and repeatedly harassing someone on purpose (ASD patient [1]; [5]): 0 | PARS-TR item 49: Always wanting to be the best (ASD patient [1]; [5]): 0 | PARS-TR item 50: Showing tic symptoms (e.g., blinking, head movements, abuseful language) (ASD patient [1]; [5]): 0 | PARS-TR item 51: Being restless in a manner inappropriate for the context (ASD patient [1]; [5]): 0 | PARS-TR item 53: Showing behavioral arrest, and becoming incapable of moving to the next act fo frozen (ASD patient [1]; [5]): 0 | PARS-TR item 25: Persistently asking the same question (ASD patient [1]; [6]): 0 | PARS-TR item 26: Showing confusion when regular daily routine of procedures suddnly change (ASD patient [1]; [6]): 1 | PARS-TR item 33: Suddenly crying or becoming upset (ASD patient [1]; [6]): 0 | PARS-TR item 36: Showing self-centered behaviors without regard for surrounding people (ASD patient [1]; [6]): 0 | PARS-TR item 37: Showing interactive behaviors inappropriate for the context when approached by someone (ASD patient [1]; [6]): 1 | PARS-TR item 38: Interacting with others only when having a request (ASD patient [1]; [6]): 0 | PARS-TR item 43: Speaking in a unnatural and monotonous tone (ASD patient [1]; [6]): 1 | PARS-TR item 44: Having difficulty understanding another person's feeling or point of view (ASD patient [1]; [6]): 0 | PARS-TR item 45: Having difficulty understanding jokes and irony, and interpreting them literally (ASD patient [1]; [6]): 1 | PARS-TR item 52: Being very careless, unable to behave appropriately for the context (ASD patient [1]; [6]): 0 | PARS-TR item 54: Appearing unashamed (ASD patient [1]; [6]): 1 | PARS-TR item 55: Being easily deceived (ASD patient [1]; [6]): 1 | PARS-TR item 56: Being likely to feel victimized, suspicious, or aggressive (ASD patient [1]; [6]): 0 | PARS-TR item 57: Being emotionally unstable, and showing frequent emotional ups and downs (ASD patient [1]; [6]): 0 | PARS-TR item 28: Becoming mentally unstable when recalling bad events in the past (ASD patient [1]; [7]): 1 | PARS-TR item 30: Being disgusted with a particular sound (ASD patient [1]; [7]): 1 | PARS-TR item 46: Being keen on acquiring knowledge in a particular field, such as the names of places or train stations (ASD patient [1]; [7]): 1 | PARS-TR Total Score of Items 25 to 57 (ASD patient [1]; case 2, 600 mg/day oral + fursultiamine 25 mg/day, 17 Days After Administration, Before Administration: 22, cutoff 20 or more): 11 | severity of hypersensibility (ASD patient [1]; case 3, 800 mg/day oral + fursultiamine 25 mg/day, 8 weeks): lowered the severity of hypersensibility | PARS-TR item 31 rating (insensitive to pain) (ASD patient [1]; [8]): 1 | PARS-TR item 32 rating (frightened by wipers, ceiling fan) (ASD patient [1]; [8]): 0 | PARS-TR item 30 rating (hyperacusis) (ASD patient [1]; case 3, 800 mg/day oral + fursultiamine 25 mg/day, 8 weeks after the intake, before intake: rating 2): 1 | PARS-TR current score in early adolescence or adulthood (ASD patient [1]; case 3, 800 mg/day oral + fursultiamine 25 mg/day, 18 weeks after the intake, before intake: 21, cutoff score 20): 14 | RBS-R total score for each subscale compared with before the intake (ASD patient [2]; case 3, 6 subscales, FIG. 8B): significant decrease | RBS-R total score compared with before the intake (ASD patient [2]; case 3, FIG. 8A): significant decrease | total score of all items in RBS-R compared with before the intake (ASD patient [2]; case 4, FIG. 10A): significantly decreased | RBS-R total score of subscale items (Stereotypical Behavior, Self-Harming Behavior, Obsessive-Compulsive Behavior, Insistence on Sameness) (ASD patient [2]; case 4, FIG. 10B): significantly decreased | brain MRI finding during medication ([3]; subject ID No. 3, 6 weeks after start of administration, epilepsy-like symptom): sign suggestive of Wernicke's encephalopathy | brain MRI finding during medication ([3]; subject ID No. 6, 9 weeks after start of administration): signs suggestive of Wernicke's encephalopathy | plasma levels of pyridoxamine, pyridoxal, and 4-pyridoxic acid versus dose ([4]; 300, 600, 900 mg/dose oral): increased along with the increase in dose
